Measurements as given in patent US5952312A, “NADH and NADPH therapeutic agents for nasal, sublingual, rectal and dermal administration” (Birkmayer Pharmaceuticals, Inc., priority 1998, dated 1999).
“Also recorded” adds a separate entry of the source. Structures can show the parent of a compound that is named as a salt.

Tests used:
[1] = oral form; cited from earlier work
[2] = rectal administration (suppositories); format: in vivo
Description: It has also been discovered that good results are obtained when NADH is administered rectally. […] NADH may be administered rectally in the form of suppositories. A suitable suppository formulations are: […]

[3] = system: mitochondrial enzymes; experiment: stimulation of enzymes essential for the energy production of skin cells; format: cell-based; conditions: topical
Text: In accordance with the invention, an NADH and/or NADPH composition is provided for topical application to the skin. […] The enzymes stimulated are principally the mitochondrial enzymes. The NADH and/or NADPH can be incorporated into a skin compatible cream, lotion or cosmetic, or can be combined with micelles of lipophilic substances. Liposomes are preferred vesicles for delivering the greatest dosages of NADH and/or NADPH into the skin.

[4] = sublingual administration; format: in vivo
Text: The NADH is merely placed underneath the tongue and resorbed. Unlike the oral form of NADH described in U.S. Pat. No. 5,332,727, a sublingual form should not be coated with an acid stable protective coating.

[5] = system: skin cells; experiment: topical application: skin cell life, water uptake, wrinkles; format: in vivo
Text: (§1) The NADH encapsulated by the liposomes is simply applied topically to the skin, and is rubbed into the skin to ensure penetration.

[6] = system: Alzheimer's disease; conditions: orally or intravenously; cited from earlier work
[7] = system: skin proliferation layer cells; format: in vivo; conditions: topical; for penetration of cutis and entry into cells of the skin proliferation layer: radiolabelled
[8] = stability against pH; format: physicochemical
Text: The NADH may be entrapped in the liposomes in either of two ways. The NADH may be dissolved in the organic solvent together with the lipid(s) and the detergent(s) during the liposome formation. By this procedure, the NADH will be present in the lipid film before the film is solubilized. Alternatively, the NADH may be entrapped by dissolving it in the aqueous solvent (preferably buffered) before the lipid film is exposed to the aqueous solvent. It is important that the aqueous solution of NADH not have a pH below 7 as NADH (and NADPH) are very unstable at pHs below 7. This second method of entrapment (i.e., dissolving NADH in aqueous solution) is preferred.

[9] = shelf/storage stability of pure substance and formulations; format: physicochemical; conditions: protected from light
Text: (§2) Although NADH and/or NADPH may be used by themselves in pure form (they are quite stable in compressed form when protected from light), it is preferred that they be combined in a galenic formulation with a stabilizer, and most preferably with both a stabilizer and a filler. The use of a stabilizer is preferred to prevent oxidation of NADH and NADPH to NAD^+ and […] , respectively. Although, NADH and NADPH are active for the variety of therapeutic effects discussed above, NAD^+ and NADP^+ are ineffective. Therefore, oxidation of NADH and NADPH must be prevented during storage to provide for a reasonable shelf life. […] NADH/NADPH formulations containing such stabilizers are stable for up to two years. Other various stabilizers will become apparent tc those skilled in the art.
In general, a preferred formulation will include about 3 to 10% by weight NADH and/or NADPH; about 1 to 10% by weight stabilizer; and the remainder as filler. Such a formulation, after being compressed into a pill and coated, is stable for over 24 months.

[10] = system: mitochondria; experiment: stimulation of mitochondrial energy production of skin cells; format: cell-based
Text: as §1

[11] = system: Parkinson's disease; conditions: earlier patents; cited from earlier work
[12] = after intravenous application; cited from earlier work
[13] = compatibility with lactose; format: physicochemical; conditions: lactose as filler
Text: Suitable fillers for use with NADH and NADPH include: mannitol, microcrystalline cellulose, carboxymethyl cellulose; and dibasic calcium phosphate. Other suitable fillers will become apparent to those skilled in the art.

[14] = system: Parkinsonian patients; experiment: motor system in Parkinsonian patients; format: in vivo, human; conditions: sublingual, rectal or nasal; single 5 to 500 mg, daily 5 to 1,500 mg
Description: A suitable single dose of NADH and/or NADPH for sublingual, rectal or nasal application is 5 to 500 mg, preferably 25 to 100 mg. A suitable daily dose is 5 to 1,500 mg, preferably 25 to 300 mg.

[15] = nasal absorption and transport to the brain; format: in vivo; conditions: inhaled through nasal passages
Text: For a powder spray, the NADH is simply ground into a fine powder and atomized from a spray bottle. Preferably, pure NADH is used for the powder spray, however, it can be used in conjunction with a filler, such as mannitol, as described below.

[16] = system: Parkinson's disease; conditions: intravenous, patients with Parkinson's disease; cited from earlier work
[17] = system: Alzheimer's disease; experiment: nasal administration in Alzheimer's disease; format: in vivo, human
Text: (§3) However, I have now discovered that NADH and/or NADPH is also effective when administered topically (as described above for prolonging the life of skin cells and reducing wrinkles), sublingually, rectally and nasally.

[18] = system: Parkinson's disease; experiment: nasal administration in Parkinson's disease; format: in vivo, human
Text: as §3

[19] = dissolution in fluids secreted by the olfactory mucous membrane; format: physicochemical; conditions: fluids of the olfactory epithelium
Description: Thus, in accordance with the invention, the NADH may be administered to the nasal cavity of a patient afflicted with Parkinson's disease, Alzheimer's disease or mental depression. The NADH may be applied alone or in combination with other substances, for example, a pharmaceutically acceptable carrier or an agent that facilitates the transfer of the NADH through the nasal mucosa. The NADH is administered intranasally as a powder, spray, gel, ointment, infusion, injection or nose drops. The NADH is delivered to the nasal cavity. It is preferred that the NADH be delivered to the olfactory area in the upper third of the nasal cavity, and particularly to the olfactory neuroepithelium in order to promote transport of the NADH into the peripheral olfactory neurons rather than the capillaries within the respiratory epithelium. It is preferred that the transport of NADH to the brain be by means of the nervous system rather than the circulatory system so that the blood-brain barrier from the bloodstream into the brain is circumvented. However, good results can also be obtained through the bloodstream. […] The NADH may be combined with a carrier or other substance that fosters dissolution within nasal secretions, such as the ganglioside GM-1 or the phospolipid phosphatidylserine, or emulsifiers such as polysorbate 80. […]

[20] = therapeutic activity of the oxidized forms; conditions: in vivo
Text: as §2

[21] = system: cell degeneration; conditions: presence of uncoupled mitochondria; cited from earlier work

SMILES	absorption by the intestine [1]	stimulation of enzymes essential for energy production of skin cells [3]	effectiveness when administered sublingually [4]	cell life [5]	water uptake by the cell / wrinkle formation [5]	effectiveness in Alzheimer's disease [6]	absorption by the skin and uptake by the skin cells [7]	entry into cells of the proliferation layer, not encapsulated by liposomes [7]	penetration of cutis and entry into cells of the skin proliferation layer [7]	stability at pH below 7 [8]	stability in pure compressed form [9]	distribution to mitochondria and stimulation of energy production of the cell [10]	usefulness/effectiveness in Parkinson's disease [11]	degradation in plasma and blood [12]	effect on motor system [14]	beneficial effect [16]	duration of beneficial effect [16]	dissolution in nasal secretions [19]	therapeutic effectiveness of oxidized forms [20]	also measured
NC(=O)C1=CN([C@@H]2O[C@H](COP(=O)(O)OP(=O)(O)OC[C@H]3O[C@@H](n4cnc5c(N)ncnc54)[C@H](O)[C@@H]3O)[C@@H](O)[C@H]2O)C=CC1 [NADH, nicotinamide adenine dinucleotide in its reduced form]	absorbed by the intestine	stimulate certain enzymes which are essential for the energy production of the cells	effective when administered sublingually	prolonged cell life	increased water uptake by the cell, thereby reducing wrinkle formation	effective in the treatment of Parkinson's disease and Alzheimer's disease	absorbed by the skin and penetrate the cutis to be taken up by the skin cells	enters the cells of the proliferation layer	crosses the cutis and enters the cells which comprise the skin proliferation layer	very unstable	quite stable	goes to the mitochondria where it stimulates the energy production of the cell	effective in the treatment of Parkinson's disease; also recorded: useful in the treatment of Parkinson's Disease	not rapidly degraded in the plasma and blood	improve the motor system in Parkinsonian patients	remarkable beneficial effect	at least 24 hours	capable of at least partially dissolving in the fluids		results when administered rectally [2]: good results; speed of results, rectal ([2]; compared with nasal or sublingual): not obtained as quickly as in the case of nasal or sublingual administration; speed of results, sublingual [4]: very fast results; reaction with lactose [13]: reacts with NADH; nasal absorption and transport to the brain [15]: travels directly to the brain, circumventing the blood-brain barrier; also recorded: absorbed by the mucosa of the nose and travels to the brain through the olfactory neural pathway; effectiveness by nasal application in Alzheimer's disease [17]: particularly effective in the treatment of Alzheimer's disease; speed of results, nasal [17]: very fast results; effectiveness by nasal application in Parkinson's disease ([18]; nasal): particularly effective in the treatment of Alzheimer's disease and Parkinson's disease; therapeutic effects, nasal vs oral form ([18]; nasal powder spray): same therapeutic effects as the oral form
NC(=O)c1ccc[n+]([C@@H]2O[C@H](COP(=O)([O-])OP(=O)(O)OC[C@H]3O[C@@H](n4cnc5c(N)ncnc54)[C@H](OP(=O)(O)O)[C@@H]3O)[C@@H](O)[C@H]2O)c1 [NADP^+]																			ineffective	
NC(=O)c1ccc[n+]([C@@H]2O[C@H](COP(=O)([O-])OP(=O)(O)OC[C@H]3O[C@@H](n4cnc5c(N)ncnc54)[C@H](O)[C@@H]3O)[C@@H](O)[C@H]2O)c1 [NAD^+]																			ineffective	
C[C@@H](O)CC(=O)O [D(-)-β-hydroxybutyrate sodium salt]																				inhibition of cell degeneration [21]: inhibited cell degeneration resulting from the presence of uncoupled mitochondria in a dose dependent manner
NC(=O)C1=CN([C@@H]2O[C@H](COP(=O)(O)OP(=O)(O)OC[C@H]3O[C@@H](n4cnc5c(N)ncnc54)[C@H](OP(=O)(O)O)[C@@H]3O)[C@@H](O)[C@H]2O)C=CC1 [NADPH, nicotinamide adenine phosphate dinucleotide in its reduced form]	absorbed by the intestine	stimulate certain enzymes which are essential for the energy production of the cells	effective when administered sublingually	prolonged cell life	increased water uptake by the cell, thereby reducing wrinkle formation	effective in the treatment of Parkinson's disease and Alzheimer's disease	absorbed by the skin and penetrate the cutis to be taken up by the skin cells	enters the cells of the proliferation layer	crosses the cutis and enters the cells which comprise the skin proliferation layer	very unstable	quite stable	goes to the mitochondria where it stimulates the energy production of the cell	effective in the treatment of Parkinson's disease; also recorded: useful in the treatment of Parkinson's Disease	not rapidly degraded in the plasma and blood	improve the motor system in Parkinsonian patients	remarkable beneficial effect	at least 24 hours	capable of at least partially dissolving in the fluids		
